{"source": "patent US20200329698A1", "about": "“COMPOSITIONS FOR ORGAN GRAFT PRESERVATION AND METHODS OF USE” (Nobilis Therapeutics, Inc., priority 2019, published 2020)", "key": {"[1]": {"test_system": "rat renal grafts from DBD donation or DCD donation", "conditions": "Dex 0.1 nM in UW at 4° C., cold ischemia 24 hr, vs vehicle", "experimental": "For in vivo fluorescence or DAB staining, 25-μm frozen lung sections were incubated with rabbit anti-Rip1 (1:200, SANTA CRUZ BIOTECHNOLOGY®), rabbit anti-Rip3 (1:200, SANTA CRUZ BIOTECHNOLOGY®), mouse anti-HMGB-1 (1:200, Abcam), Goat anti-TLR-4 (1:200, SANTA CRUZ BIOTECHNOLOGY®), rabbit anti-Nrf-2 (1:200, SANTA CRUZ BIOTECHNOLOGY®), mouse anti-SOD-1 (1:200, Abcam), mouse anti-NQO-1 (1:200 Abcam), rabbit anti-3-nitrotyrosine (1:200, Abcam) and rabbit anti-4-hydroxynonenal (1:200, Abcam) at 4° C. overnight. After washing with PBST, the slides were incubated with fluorochrome-conjugated secondary antibodies (MILLIPORE™, UK). For double-labelled immunofluorescence, lung samples were incubated with the first primary antibody overnight, followed by the first secondary antibody, and then the second primary antibody and the second secondary antibody. The slides were counterstained with nuclear dye DAPI and mounted with […]® Mounting Medium (Vector lab, USA). Sections were examined using an OLYMPUS™ (Watford, UK) BX4 microscope under constant exposure level. Immunofluorescence was quantified using ImageJ (National Institutes of Health, Maryland, USA) and the background was subtracted. Ten representative regions per section (in vivo) or field (in vitro) were randomly selected by an assessor blinded to the treatment groups. Values were then calculated as percentages of the mean value for naïve controls and expressed as percentage fluorescence intensity.\nLung alveolar cell death was detected by the in situ TUNEL assay (MILLIPORE™) according to the manufacturer's instructions. TUNEL nuclei were visualized by green FITC fluorescence.\nA rat renal graft machine perfusion model was developed, (see FIG. 1B) to simulate the renal graft preservation process. A series of experiments were conducted using the Fischer-to-Lewis allogeneic renal transplant model. Grafts from donors after brain death (DBD) or cardiac arrest (DCD) were used. The preserving solution was saturated with dexmedetomidine at 0.1 nM[32]. The grafts were extracted and then machine-perfused with UW solution at 4° C.[18] with a flow rate of 1.5-2 ml/min [39] for 4 hours and then kept in the preserving solution until 24 hours. Grafts were then transplanted into Lewis recipient immediately following extraction (cold-ischemia 0 hr), or stored in preservative solution for 24 hr (cold-ischemia 24 hr), The orthotopic renal transplantation into Lewis recipients was conducted and their contralateral kidneys were removed at the end of surgery. The recipient received cyclosporine A (5 mg/kg/day intramuscular injection per day) for 10 days to prevent acute immune rejection."}, "[2]": {"test_system": "ex vivo renal grafts from brain death or cardiac arrest donors", "test": "Rat hypothermic machine perfusion model", "conditions": "exposure of ex vivo grafts prior to engraftment"}}}
{"molecule": "Cc1cccc([C@H](C)c2cnc[nH]2)c1C", "note": "[Dexmedetomidine]", "values": [{"measurement": "Heme oxygenase 1 (HO-1) expression, immunofluorescence", "setting": "[1]", "value": "significantly increased"}, {"measurement": "Nrf2 expression, immunofluorescence", "setting": "[1]", "value": "significantly increased"}, {"measurement": "necroptosis (expression of MLKL)", "setting": "[1]", "value": "suppressed necroptosis"}, {"measurement": "renal graft architecture / morphology (H&E staining, injury scoring)", "setting": "[1]", "value": "preserved the renal graft architecture"}, {"measurement": "tissue injury in the renal cortex (TUNEL cell death staining)", "setting": "[1]", "value": "reduced tissue injury in the renal cortex"}, {"measurement": "organ graft injury, histologically and functionally", "setting": "[2]", "value": "prevent organ graft injury"}]}
